Source: patent publication EP3064205A1, “Therapeutic use of isomeric forms of 2-(4-chlorophenyl)quinolin-4-yl)(piperidin-2-yl)methanol” (Glionova AB, priority 2015, dated 2016)
Read-outs that look alike come from different tables or passages of the source.

Columns and labels:
Experiment in all cases: 3D clonogenic assay (PDX)
Type in all cases: cell-based, human
BXF 1218 = details: BXF 1218, Bladder; for IC50: Homo sapiens
Outline: (§1)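 Ex vivo clonogenic growth of patient-derived xenograft cells in a three-layer soft-agar system, IMDM with 20% FCS. Continuous exposure at ten half-log concentrations from 50 µM, in duplicate. Colonies were counted at maximal formation after 8–13 days.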

BXF 439 = details: BXF 439, Bladder; for IC50: Homo sapiens
Outline: as §1

CXF 1103 = details: CXF 1103, Colorectal; for IC50: Homo sapiens, CXF1103
Outline: as §1

LXFA 1584 = details: LXFA 1584, Lung Adeno; for IC50: Homo sapiens
Outline: as §1

LXFL 1072 = details: LXFL 1072, Lung Large Cell; for IC50: Homo sapiens
Outline: as §1

LXFL 529 = details: LXFL 529, Lung Large Cell; for IC50: Homo sapiens
Outline: as §1

MAXF 1162 = details: MAXF 1162, Breast; for IC50: Homo sapiens
Outline: as §1

MEXF 274 = details: MEXF 274, Melanoma; for IC50: Homo sapiens
Outline: as §1

PAXF 1872 = details: PAXF 1872, Pancreas; for IC50: Homo sapiens
Outline: as §1

PAXF 1900 = details: PAXF 1900, Pancreas; for IC50: Homo sapiens
Outline: as §1

PAXF 2033 = details: PAXF 2033, Pancreas; for IC50: Homo sapiens
Outline: as §1

SXFS 117 = details: SXFS 117, Sarcoma Soft Tissue; for IC50: Homo sapiens
Outline: as §1

- IC50 (BXF 1218; read-out: abs. IC50): 6.16 µM
- IC50 (BXF 1218; read-out: rel. IC50): 6.02 µM
- IC50 (BXF 439; read-out: abs. IC50): 14 µM
- IC50 (BXF 439; read-out: rel. IC50): 12.8 µM
- IC50 (CXF 1103; read-out: abs. IC50): 11.5 µM
- IC50 (CXF 1103; read-out: rel. IC50): 6.47 µM
- IC50 (LXFA 1584; read-out: abs. IC50): 7.81 µM
- IC50 (LXFA 1584; read-out: rel. IC50): 6.79 µM
- IC50 (LXFL 1072; read-out: abs. IC50): 7.6 µM
- IC50 (LXFL 1072; read-out: rel. IC50): 7.58 µM
- IC50 (LXFL 529; read-out: abs. IC50): 10.4 µM
- IC50 (LXFL 529; read-out: rel. IC50): 10.1 µM
- IC50 (MAXF 1162; read-out: abs. IC50): 4.64 µM
- IC50 (MAXF 1162; read-out: rel. IC50): 4.63 µM
- IC50 (MEXF 274; read-out: abs. IC50): 8.84 µM
- IC50 (MEXF 274; read-out: rel. IC50): 8.69 µM
- IC50 (PAXF 1872; read-out: abs. IC50): 9.3 µM
- IC50 (PAXF 1872; read-out: rel. IC50): 8.89 µM
- IC50 (PAXF 1900; read-out: abs. IC50): 13.2 µM
- IC50 (PAXF 1900; read-out: rel. IC50): 12.2 µM
- IC50 (PAXF 2033; read-out: abs. IC50): 9.19 µM
- IC50 (PAXF 2033; read-out: rel. IC50): 8.89 µM
- IC50 (SXFS 117; read-out: abs. IC50): 8.55 µM
- IC50 (SXFS 117; read-out: rel. IC50): 8.58 µM
Structure (SMILES): O[C@H](c1cc(-c2ccc(Cl)cc2)nc2ccccc12)[C@@H]1CCCCN1 [S1, (R)-(2-(4-chlorophenyl)quinolin-4-yl)((S)-piperidin-2-yl)methanol]
- b (bottom plateau of concentration-effect curve) (BXF 1218): 15
- t (top plateau of concentration-effect curve) (BXF 1218): 100
- b (bottom plateau of concentration-effect curve) (BXF 439): 34
- t (top plateau of concentration-effect curve) (BXF 439): 95
- b (bottom plateau of concentration-effect curve) (CXF 1103): 47
- t (top plateau of concentration-effect curve) (CXF 1103): 99
- b (bottom plateau of concentration-effect curve) (LXFA 1584): 31
- t (top plateau of concentration-effect curve) (LXFA 1584): 95
- b (bottom plateau of concentration-effect curve) (LXFL 1072): 0
- t (top plateau of concentration-effect curve) (LXFL 1072): 101
- b (bottom plateau of concentration-effect curve) (LXFL 529): 11
- t (top plateau of concentration-effect curve) (LXFL 529): 92
- b (bottom plateau of concentration-effect curve) (MAXF 1162): 12
- t (top plateau of concentration-effect curve) (MAXF 1162): 90
- b (bottom plateau of concentration-effect curve) (MEXF 274): 17
- t (top plateau of concentration-effect curve) (MEXF 274): 103
- b (bottom plateau of concentration-effect curve) (PAXF 1872): 42
- t (top plateau of concentration-effect curve) (PAXF 1872): 89
- b (bottom plateau of concentration-effect curve) (PAXF 1900): 33
- t (top plateau of concentration-effect curve) (PAXF 1900): 114
- b (bottom plateau of concentration-effect curve) (PAXF 2033): 27
- t (top plateau of concentration-effect curve) (PAXF 2033): 110
- b (bottom plateau of concentration-effect curve) (SXFS 117): 4
- t (top plateau of concentration-effect curve) (SXFS 117): 91
